Laboratory results: the NIST ThermoML archive (doi:10.1021/je500211w)

Assay: xn = mol fraction of the nth substance listed
Details: 101 kPa, Liquid, NMR spin-echo technique

OCC(F)(F)F [2,2,2-trifluoroethanol] + O
binary diffusion coefficient [m2/s]
Details | 283.2 K | 288.2 K | 293.2 K | 298.2 K | 303.2 K | 308.2 K | 313.2 K
x1 = 0.000511 | 7.32e-10 | 8.43e-10 | 1.02e-09 | 1.13e-09 | 1.28e-09 | 1.44e-09 | 1.71e-09
x1 = 0.001034 | 7.18e-10 | 8.44e-10 | 9.98e-10 | 1.11e-09 | 1.27e-09 | 1.46e-09 | 1.71e-09
x1 = 0.004989 | 6.91e-10 | 8.01e-10 | 9.67e-10 | 1.1e-09 | 1.23e-09 | 1.41e-09 | 1.66e-09
x1 = 0.009331 | 6.69e-10 | 7.62e-10 | 9.35e-10 | 1.1e-09 | 1.2e-09 | 1.36e-09 | 1.57e-09
x1 = 0.01008 | 6.68e-10 | 7.87e-10 | 8.96e-10 | 1.06e-09 | 1.23e-09 | 1.37e-09 | 1.57e-09
x1 = 0.04965 | 4.57e-10 | 5.52e-10 | 7.24e-10 | 8.51e-10 | 9.71e-10 | 1.1e-09 | 1.28e-09
